Patent US20210349099A1, “CANCER BIOMARKERS AND METHODS OF USE THEREOF” (X4 Pharmaceuticals, Inc., priority 2017, published 2021)

How the values were obtained:
[1] = system: melanoma tumor microenvironment (TME); experiment: Multiplex immunofluorescence (mIF) immunophenotyping of melanoma biopsies; type: in vivo, human; details: melanoma patient #5
Experimental: (§1) Formalin-fixed paraffin-embedded (FFPE) tissue sections were baked for 1 hour at 60° C. The slides were dewaxed and stained on a Leica BOND Rx stainer (Leica, Buffalo Grove, Ill.) using Leica Bond reagents for dewaxing (Dewax Solution), antigen retrieval and antibody stripping (Epitope Retrieval Solution 2), and rinsing after each step (Bond Wash Solution). A high stringency wash was performed after the secondary and tertiary applications using high-salt TBST solution (0.05 M Tris, 0.3M NaCl, and 0.1% Tween-20, pH 7.2-7.6). OPAL Polymer HRP Mouse plus Rabbit (PerkinElmer, Hopkington, Mass.) was used for all secondary applications.
Antigen retrieval and antibody stripping steps were performed at 100° C. with all other steps at ambient temperature. Endogenous peroxidase was blocked with 3% H2O2 for 8 minutes followed by protein blocking with TCT buffer (0.05 M Tris, 0.15 M NaCl, 0.25% Casein, 0.1% Tween 20, pH 7.6+/−0.1) for 30 minutes. The first primary antibody (position 1) was applied for 60 minutes followed by the secondary antibody application for 10 minutes and the application of the tertiary TSA-amplification reagent (PerkinElmer OPAL fluor) for 10 minutes. The primary and secondary antibodies were stripped with retrieval solution for 20 minutes before repeating the process with the second primary antibody (position 2) starting with a new application of 3% H2O2. The process was repeated until all 6 positions were completed; however, there was no stripping step after the 6th position. Slides were removed from the stainer and stained with Spectral DAPI (Perkin Elmer) for 5 minutes, rinsed for 5 minutes, and coverslipped with Prolong Gold Antifade reagent (Invitrogen/Life Technologies, Grand Island, N.Y.).
Slides were cured for 24 hours at room temperature, then representative images from each slide were acquired on PerkinElmer Vectra 3.0 Automated Imaging System. Images were spectrally unmixed using PerkinElmer inForm software and exported as multi-image TIFF's for analysis in HALO software (Indica Labs, Corrales, N. Mex.).
Cellular analysis of the images were then analyzed with HALO image analysis software (Indica Labs, Cooales, N. Mex.). After the cells were visualized based on nuclear recognition (DAPI stain), the software measured fluorescence intensity of the estimated cytoplasmic areas of each cell. A mean intensity threshold above background was used to determine positivity for each fluorochrome within the cytoplasm, thereby, defining cells as either positive or negative for each marker. The positive cell data was then used to define colocalized populations and to perform nearest neighbor spatial analysis.
Formalin-fixed paraffin-embedded melanoma samples were stained sequentially with a 6-component immunophenotyping antibody panel, including CD4, CD8, PD-1, PD-L1, macrophage cocktail (CD68+CD163), and FoxP3 (Tregs). DAPI was used as a nuclear counterstain. Antibodies were detected using HRP-catalyzed deposition of fluorescent tyramide substrates (Opal, Perkin-Elmer). Images were obtained using spectral imaging, autofluorescence subtraction and unmixing (Vectra 3.0, Perkin-Elmer), and analyzed using HALO™ image analysis software.
as §1, with “Tumor samples obtained from melanoma patients were formalin-fixed and” for “Formalin-fixed”, “(FFPE) according to known procedures. FFPE” for “(FFPE)”, “OPAL Polymer HRP Mouse plus Rabbit (PerkinElmer, Hopkington, Mass.) was used for all secondary applications.” left out

melanoma lesions = experiment: CD8/Ki67/melanoma staining with nearest neighbor spatial analysis of biopsies; type: in vivo, human
Experimental: as §1, with “Tumor samples obtained from melanoma patients were formalin-fixed and” for “Formalin-fixed”, “(FFPE) according to known procedures. FFPE” for “(FFPE)”, “7.2-7.6).” for “7.2-7.6). OPAL Polymer HRP Mouse plus Rabbit (PerkinElmer, Hopkington, Mass.) was used for all secondary applications.”
Multiplex IHC staining was analyzed using HALO™ spatial analysis tools, and the entire tumor area of each specimen was scored. (See Tunstall, “Quantifying Immune Cell Distribution in the Tumor Microenvironment Using HALO™ Spatial Analysis Tools,” Application Note, July […], (Indica Labs), accessed Nov. 1, 2017, on https://thepathologist.com/fileadmin/issues/App_Notes/0016-010-halo-app-note.pdf). See also Sherry et al., Cancer Research 77(13) Supp: Abstract 2937 (2017).
Slides were sequentially stained with antibody panels after rounds of heat-induced epitope retrieval and detected by antibody-binding HRP-containing polymers in conjunction with fluorescent tyramide substrate (Opal, Perkin-Elmer). DAPI was used as a nuclear counterstain. Fluorochromes with spectral overlap were imaged using spectral deconvolution and autofluorescence-subtraction (Vectra 3.0, Perkin-Elmer). Whole-slide scans were imaged using the Aperio-FL System (Leica Biosystems) and transferred into Halo for quantitative digital image analysis. After the cells were visualized based on nuclear recognition (DAPI stain), the software measured fluorescence intensity of the estimated cytoplasmic areas of each cell. A mean intensity threshold above background was used to determine positivity for each fluorochrome within the cytoplasm, thereby, defining cells as either positive or negative for each marker. The positive cell data was then used to define colocalized populations and to perform nearest neighbor spatial analysis.
Staining for CD4, CD8, PD-1, PD-L1, CD163/CD68 (macrophage), FoxP3, Ki-67, and melanoma cells was accomplished using the antibodies listed in TABLE 3 and 4. OPAL Polymer HRP Mouse plus Rabbit (Perkin-Elmer, Hopkington, Mass.) was used for all secondary applications. […]
Representative distance measurements between CD8^+ T cells and their nearest melanoma cell neighbors are shown in FIG. 13 (Day 1), FIG. 14 (Week 4), and FIG. 15 (End of treatment). Whole slide scans were performed using a fluorescence slide scanner (Aperio-FL, 20× objective). […]

SMILES: NCCCCN(Cc1nc2ccccc2[nH]1)[C@H]1CCCc2cccnc21 [X4P-001]
- percentage of CD4 positive cells in the TME [1]: increased
- percentage of CD8 positive cells in the TME [1]: increased
- percentage of PD-1 positive cells in the TME [1]: increased
- percentage of PDL-1 positive cells in the TME [1]: increased
- percentage of Treg (FoxP3+) cells [1]: not altered
- percentage of macrophages (CD68/CD163+) ([1]; printed 24.1% vs. 25.4%, not altered): 25.4%
- number of unique neighbors (melanoma lesions; after 4 weeks of monotherapy, Day 1 3,826): 5,239
- average distance between CD8+ T cells and the nearest tumor cell (melanoma lesions; after 4 weeks of monotherapy, Day 1 baseline 95): 43 microns
- CD8+ T cell density (melanoma lesions; patient 5, entire tissue sample, after monotherapy): increased
- proliferating CD8+ T cell (Ki67+) density (melanoma lesions; patient 5, entire tissue sample, after monotherapy, stronger impact): increased
